Our source for the T/C values is PubChem BioAssay AID244 (DTP/NCI, 2004).

The structures appear in SMILES notation. Values joined by “and” are separate entries in the source; they are usually repeats but may differ in a detail not shown here. Equal entries are not always repeated. Results filed as inconclusive are left out.

For the assay, the system named is CD2F1 mice, Lymphoma 8 ip, survival T/C. The assay can be described thus: NCI In Vivo Anticancer Drug Screen. Data for tumor model Lymphoma 8 (intraperitoneal) in CD2F1 (CDF1) mice. The settings on record: higher = longer survival. How it is done:
The antitumor activity of compounds was measured in mice bearing transplantable tumors. Survival or tumor size were measured and the results are expressed as the measurement made in the treated group (T) divided by the measurement made in the vehicle treated control group (C). The tumor model used in this assay is Lymphoma 8 (intraperitoneal) in CD2F1 (CDF1) mice

Where [1] appears, read: endpoint: median survival time, dose: 50.0 mg/kg/injection, schedule: Q01DX009 (ip), vehicle: saline.
[2] abbreviates: endpoint: median survival time, dose: 50.0 mg/kg/injection, schedule: Q01DX005 (ip), vehicle: saline.
Where [3] appears, read: endpoint: median survival time, dose: 100.0 mg/kg/injection, schedule: Q01DX005 (ip), vehicle: saline.
The mark [4] stands for this setting: endpoint: median survival time, dose: 200.0 mg/kg/injection, schedule: Q01DX005 (ip), vehicle: saline.
Setting [5] is: endpoint: median survival time, dose: 400.0 mg/kg/injection, schedule: Q01DX005 (ip), vehicle: saline.
Where [6] appears, read: endpoint: median survival time, dose: 60.0 mg/kg/injection, schedule: Q04DX002 (ip), vehicle: saline.
Setting [7] is: endpoint: median survival time, dose: 100.0 mg/kg/injection, schedule: Q01DX005 (ip), vehicle: water.
Where [8] appears, read: endpoint: median survival time, dose: 200.0 mg/kg/injection, schedule: Q01DX005 (ip), vehicle: water.
The mark [9] stands for this setting: endpoint: median survival time, dose: 400.0 mg/kg/injection, schedule: Q01DX005 (ip), vehicle: water.

As for `O=C1C=CC(=O)N1`, the T/C runs as follows: (endpoint: median survival time, dose: 0.25 mg/kg/injection, schedule: Q01DX009 (ip), vehicle: saline) 98 % of control and 109 % of control; (endpoint: median survival time, dose: 0.5 mg/kg/injection, schedule: Q01DX009 (ip), vehicle: saline) 100 % of control and 102 % of control; (endpoint: median survival time, dose: 1.0 mg/kg/injection, schedule: Q01DX009 (ip), vehicle: saline) 95 % of control and 102 % of control; (endpoint: median survival time, dose: 2.0 mg/kg/injection, schedule: Q01DX009 (ip), vehicle: saline) 94 % of control and 95 % of control.
Consider `NC(C/[N+]([O-])=N/O)C(=O)O` (stereo not given), for which the T/C (endpoint: median survival time, dose: 12.5 mg/kg/injection, schedule: Q01DX009 (ip), vehicle: other) was 119 % of control; the T/C (endpoint: median survival time, dose: 12.5 mg/kg/injection, schedule: Q01DX009 (ip), vehicle: saline + alcohol) is 113 % of control; the T/C (endpoint: median survival time, dose: 12.5 mg/kg/injection, schedule: Q01DX009 (ip), vehicle: water) was 116 % of control; the T/C (endpoint: median survival time, dose: 13.2 mg/kg/injection, schedule: Q01DX010 (ip), vehicle: alkali diluted with saline) was 174 % of control; the T/C (endpoint: median survival time, dose: 19.8 mg/kg/injection, schedule: Q01DX010 (ip), vehicle: alkali diluted with saline) was 197 % of control; the T/C (endpoint: median survival time, dose: 25.0 mg/kg/injection, schedule: Q01DX009 (ip), vehicle: other) was 120 % of control. Further, the T/C was 116 % of control (endpoint: median survival time, dose: 25.0 mg/kg/injection, schedule: Q01DX009 (ip), vehicle: saline + alcohol); 122 % of control (endpoint: median survival time, dose: 25.0 mg/kg/injection, schedule: Q01DX009 (ip), vehicle: water); 211 % of control (endpoint: median survival time, dose: 29.6 mg/kg/injection, schedule: Q01DX010 (ip), vehicle: alkali diluted with saline); 180 % of control (endpoint: median survival time, dose: 44.4 mg/kg/injection, schedule: Q01DX010 (ip), vehicle: alkali diluted with saline); 98 % of control (endpoint: median survival time, dose: 50.0 mg/kg/injection, schedule: Q01DX009 (ip), vehicle: other); 150 % of control (endpoint: median survival time, dose: 50.0 mg/kg/injection, schedule: Q01DX009 (ip), vehicle: water). The T/C is, setting by setting: (endpoint: median survival time, dose: 66.7 mg/kg/injection, schedule: Q01DX010 (ip), vehicle: alkali diluted with saline) 121 % of control; (endpoint: median survival time, dose: 100.0 mg/kg/injection, schedule: Q01DX009 (ip), vehicle: other) 92 % of control; (endpoint: median survival time, dose: 100.0 mg/kg/injection, schedule: Q01DX009 (ip), vehicle: saline + alcohol) 103 % of control; (endpoint: median survival time, dose: 100.0 mg/kg/injection, schedule: Q01DX009 (ip), vehicle: water) 91 % of control; (endpoint: median survival time, dose: 100.0 mg/kg/injection, schedule: Q01DX010 (ip), vehicle: alkali diluted with saline) 109 % of control.
In the case of `NC(=O)CC(N)CO` (stereo not given), the T/C under setting [1] was 87 % of control and 100 % of control; the T/C (endpoint: median survival time, dose: 100.0 mg/kg/injection, schedule: Q01DX009 (ip), vehicle: saline) is 91 % of control and 100 % of control; the T/C (endpoint: median survival time, dose: 200.0 mg/kg/injection, schedule: Q01DX009 (ip), vehicle: saline) is 97 % of control and 98 % of control; the T/C (endpoint: median survival time, dose: 400.0 mg/kg/injection, schedule: Q01DX009 (ip), vehicle: saline) is 91 % of control and 102 % of control.
Regarding `NC(=O)OCC(N)C(=O)O` (stereo not given), the T/C was 99 % of control and 100 % of control under setting [2]; 100 % of control under setting [3]; 88 % of control under setting [4]; 92 % of control and 94 % of control under setting [5].
On to `CC(=O)Nc1c(Cl)cc2c(c1Cl)Cc1cc([N+](=O)[O-])ccc1-2`, for which, under “endpoint: survival time, mean or median, dose: 3.9 mg/kg/injection, schedule: Q01DX010 (ip), vehicle: saline”, the T/C was 87 % of control.
In the case of `S=c1nc[nH]c2nc[nH]c12`, the T/C is, setting by setting: (endpoint: median survival time, dose: 60.0 mg/kg/injection, schedule: Q01DX002 (ip), vehicle: saline) 96 % of control; under setting [6], 107 % of control; (endpoint: median survival time, dose: 90.0 mg/kg/injection, schedule: Q01DX002 (ip), vehicle: saline) 93 % of control; (endpoint: median survival time, dose: 90.0 mg/kg/injection, schedule: Q04DX002 (ip), vehicle: saline) 107 % of control; (endpoint: median survival time, dose: 135.0 mg/kg/injection, schedule: Q01DX002 (ip), vehicle: saline) 103 % of control.
Take `NC(=O)CC(N)C(=O)O` (stereo not given): the T/C is 91 % of control under setting [7]; 100 % of control under setting [8]; 100 % of control under setting [9]; 91 % of control (endpoint: median survival time, dose: 800.0 mg/kg/injection, schedule: Q01DX005 (ip), vehicle: water).
Take `NC(CC(=O)NO)C(=O)O` (stereo not given): the T/C under setting [7] is 100 % of control, the T/C under setting [8] is 108 % of control and the T/C under setting [9] was 108 % of control.
For the compound `NCCC(N)=O`, the T/C by setting is: under setting [2], 92 % of control and 94 % of control; under setting [3], 92 % of control and 94 % of control; under setting [4], 92 % of control and 94 % of control; under setting [5], 92 % of control and 94 % of control.
For the compound `N=[N+]=CC(=O)CCC(NC(=O)C(CCC(=O)C=[N+]=N)NC(=O)CCC(N)C(=O)O)C(=O)O` (stereo not given), the T/C reads like this: (endpoint: median survival time, dose: 0.31 mg/kg/injection, schedule: Q04DX002 (ip), vehicle: saline) 111 % of control; (endpoint: median survival time, dose: 0.63 mg/kg/injection, schedule: Q04DX002 (ip), vehicle: saline) 107 % of control; (endpoint: median survival time, dose: 1.25 mg/kg/injection, schedule: Q04DX002 (ip), vehicle: saline) 115 % of control; (endpoint: median survival time, dose: 2.5 mg/kg/injection, schedule: Q01DX006 (ip), vehicle: saline) 121 % of control; (endpoint: median survival time, dose: 10.0 mg/kg/injection, schedule: Q01DX006 (ip), vehicle: saline) 121 % of control; (endpoint: median survival time, dose: 10.0 mg/kg/injection, schedule: Q04DX002 (ip), vehicle: saline) 169 % of control. The T/C reads like this: (endpoint: median survival time, dose: 20.0 mg/kg/injection, schedule: Q01DX001 (ip), vehicle: saline) 107 % of control; (endpoint: median survival time, dose: 20.0 mg/kg/injection, schedule: Q04DX002 (ip), vehicle: saline) 153 % of control; (endpoint: median survival time, dose: 40.0 mg/kg/injection, schedule: Q04DX002 (ip), vehicle: saline) 180 % of control; (endpoint: median survival time, dose: 40.0 mg/kg/injection, schedule: Q04DX003 (ip), vehicle: saline) 169 % of control; (endpoint: median survival time, dose: 60.0 mg/kg/injection, schedule: Q01DX001 (ip), vehicle: saline) 107 % of control; under setting [6], 180 % of control. Besides, the T/C (endpoint: median survival time, dose: 60.0 mg/kg/injection, schedule: Q04DX003 (ip), vehicle: saline) is 176 % of control; the T/C (endpoint: median survival time, dose: 80.0 mg/kg/injection, schedule: Q01DX006 (ip), vehicle: saline) is 171 % of control; the T/C (endpoint: median survival time, dose: 80.0 mg/kg/injection, schedule: Q04DX003 (ip), vehicle: saline) was 188 % of control.
For `NC(C(=O)O)C(F)(F)C(=O)O` (stereo not given), the T/C runs as follows: (endpoint: median survival time, dose: 3.12 mg/kg/injection, schedule: Q01DX009 (ip), vehicle: saline) 93 % of control; (endpoint: median survival time, dose: 6.25 mg/kg/injection, schedule: Q01DX009 (ip), vehicle: saline) 97 % of control; (endpoint: median survival time, dose: 12.5 mg/kg/injection, schedule: Q01DX009 (ip), vehicle: saline) 87 % of control and 89 % of control; (endpoint: median survival time, dose: 25.0 mg/kg/injection, schedule: Q01DX009 (ip), vehicle: saline) 100 % of control; under setting [1], 107 % of control.
Take `O=c1[nH]cc(F)c(=O)[nH]1`: the T/C reads like this: (endpoint: median survival time, dose: 13.0 mg/kg/injection, schedule: Q04DX003 (ip), vehicle: saline) 110 % of control; (endpoint: median survival time, dose: 21.8 mg/kg/injection, schedule: Q04DX003 (ip), vehicle: saline) 118 % of control; (endpoint: median survival time, dose: 36.0 mg/kg/injection, schedule: Q04DX003 (ip), vehicle: saline) 114 % of control; (endpoint: median survival time, dose: 100.0 mg/kg/injection, schedule: Q04DX003 (ip), vehicle: saline) 62 % of control.
